{"source": "patent US20050214945A1", "about": "“Htlv-I tax induced killing of p53 null cancer cells” (Eastern Virginia Medical School, priority 2002, published 2005)", "key": {"REF52 cells [1]": {"tested_on": "REF52 cells", "assay": "Host cell reactivation assay (nucleotide excision repair capacity)", "format": "cell-based, rat", "settings": "Tax-expressing REF52 vs control GFP-expressing REF52; UV-damaged CAT reporter", "experimental": "pSV2-CAT reporter plasmid was damaged ex vivo by exposure to 1000 j/m^2 of Uv-C light using a UV chamber-GS Gene Linker (Bio-Rad). REF52 and XP-A cells were transfected with 4 μg of UV-irradiated or non-irradiated pSV2-CAT plasmid together with an undamaged reporter plasmid (pMSV-Luc), and with or without Tax plasmid. Forty-eight hours after calcium phosphate transfection, cells were pelleted and resuspended in 250 μl of 250 mM Tris pH8.0. For the Luciferase assay, 25 μl of the total cellular extract was added to 50 μl of luciferase substrate. Luciferase activity was quantitated in a Luminometer. Cat assays were performed in parallel with the same cells as described (Semmes, O., et al., J. Virol. 66(12):7183-92 (1992)). Cat activity was normalized to luciferase activity of the same extract. Repair activity was calculated by setting normalized cat activity from cells cotransfected with non-irradiated pSV2-CAT to 100%. The repair activity of duplicate cells cotransfected with irradiated pSV2-CAT was reported as a percentage of that activity.\nIn examining the biological response of Tax-expressing cells to UV-induced DNA damage, efficient Nucleotide Excision Repair (NER) ability was tested. The Host Cell Reactivation Assay (HCRA) was used as a measure of NER capacity in Tax-expressing REF52 cells. […] Thus, Tax expression results in reduced NER capacity as measured by HCRA."}, "REF52 cells [2]": {"tested_on": "REF52 cells", "assay": "UV-induced apoptosis, Vybrant Apoptosis Assay", "format": "cell-based, rat", "settings": "Tax-expressing REF52 following UV exposure", "experimental": "(§1) Tax-expressing cells were treated with different UV doses (0, 20 and 50 j/m^2) and assessed at different time points post-transduction (4, 8, 12 and 24 hrs). Cells were separated into living, necrotic or apoptotic populations using the triple source fluorescent labeling, Vybrant Apoptosis Assay kit (Molecular Probes) according to the manufacturer's recommendations.\nIn addition to repair, at least two key events occured in the UV-induced cellular DNA damage response. These are initiation of cell cycle arrest and induction of apoptosis. The ability of Tax-expressing REF52 cells to undergo cell cycle arrest and apoptosis was assessed. Tax-expressing and control cells were subjected to UV irradiation and examined for apoptotic events and cell cycle profile. Prior to exposure to UV, the percent of non-apoptotic, apoptotic and necrotic cells were examined. The three populations were identified using the Vybrant assay. […] The same results were seen using several Tax-expressing cells including GM00010B (data not shown)."}, "REF52 cells [3]": {"tested_on": "REF52 cells", "assay": "Cytokinesis block cell cycle progression assay", "format": "cell-based, rat", "experimental": "(§2) Asynchronous cell cultures were seeded on coverslips and exposed to UV irradiation and allowed to recover for 1 hour. Cytochalasin B was added and the cultures incubated for 36 hours. The coverslips were fixed with paraformaldehyde/methanol and stained with propidium iodide. Slides were prepared and cell nuclei examined by microscopy. Bi-nucleus cells were considered dividing.\nNext, the cell cycle response of Tax-expressing cells was measured. REF52 and REF+Tax cells were subjected to the cytokinesis block cell cycle arrest assay to determine the intactness of the damage-induced checkpoint. In this assay, asynchronous cells were exposed to UV and incubated with cytochalasin B one hour later. The cell population was examined 36 hours later and assessed for division events. […] In contrast REF52 cells exposed to UV light initiated cell cycle arrest and presented a predominately (>90%) mononuclear cell population. However, Tax-expressing REF52 cells, exposed to UV, presented nearly 75% of the population as binucleated cells indicating a failure to arrest in cell cycle in response to UV-induced DNA damage. For each data point, 1000 cells were analyzed."}, "REF52 cells [4]": {"tested_on": "REF52 cells", "assay": "Global nucleotide excision repair assay (unscheduled DNA synthesis, BrdU)", "format": "cell-based, rat", "settings": "G1 synchronized cells, UV 20 j/m^2, BrdU", "experimental": "REF52 cells were seeded onto glass coverslips and transduced to express Tax at 25% efficiency. Sub-confluent Tax-expressing REF52 cells were cultured in 0.5% serum for 48 hrs, to synchronize at G0, prior to irradiation. The cells were released from G0 with addition of complete medium. At four hours post-release, the cells were irradiated with UV light (20 j/m^2) using a UV chamber-GS Gene Linker (Bio-Rad) and incubated for 30 min with 10 μM BrdU containing medium. The cells were then washed 4× with PBS and fixed in 4% paraformaldehyde. Cells were permeabilized with 2 minutes incubation in 100% methanol and washed 4× with PBS. The prepared cells were then reacted with both anti-Tax and anti-BrdU in PBS (containing 2% BSA). Primary antibodies were removed by washing 4× with 1% Tween 20 in PBS (PBS-Tween). Secondary conjugated antibodies were reacted for one hour at room temperature (RT). The cells were then washed with PBS-Tween and the slips were inverted onto slides with Vecta Shield (Vector Laboratories, CA). Incorporation of BrdU into the nucleus of cells at G1 corresponded to unscheduled repair synthesis.\nA failure in damage-induced cell cycle arrest would result in reduced repair efficiency and could explain the Tax-associated NER deficiency. […]"}, "p53": {"tested_on": "p53", "assay": "Nuclear accumulation of p53 after UV (immunostaining)", "format": "cell-based, rat", "settings": "Tax-expressing REF52 in response to UV damage", "text": "A key player in initiation of the UV-repair response and activation of cell cycle arrest is p53. Activation of p53 is signaled by an accumulation of P53 in the nucleus of cells exposed to UV light. To examine whether Tax-expressing cells display this early p53 response, REF52 cells were transduced with suboptimal viral titers to produce an estimated 50% transduction efficiency. The cells were exposed to UV and examined for nuclear expression of p53."}, "p53 and p21": {"tested_on": "p53 and p21", "assay": "Immunoblot of p53 and p21 after UV", "format": "cell-based, rat", "settings": "UV-induced DNA damage; Tax-expressing and control REF52", "experimental": "Approximately 2×10^6 cells were harvested and proteins extracted with […] Mammalian Protein Extraction Reagent (Pierce). 50 μl of 4× Laemmli buffer was added to the lysate. […] of the lysate was electrophoresed through a 10% SDS polyacrylamide gel. The proteins were electroblotted onto an Immobolin-P membrane (Millipore), and probed with the indicated primary antibody and the appropriate secondary alkaline phosphatase-conjugated antibody. Immunoreactivity was detected via Western Star chemiluminescence protein detection (Tropix).\nTo further analyze the p53 response in Tax-expressing cells, both Tax-expressing and control REF52 cells were examined for stabilization of steady-state p^53 and transient induction of p21. Since induction of p21 is a key event in p53-mediated cell cycle arrest, analysis of the p21 levels in Tax-expressing cells could determine the integrity of this signal. Tax-expressing and control cells were exposed to UV and harvested for western analysis pre-exposure and at eight hours and twenty four hours post exposure. […] Thus, one p53-dependent signal for cell cycle arrest, transient induction of p21, was intact."}, "[5]": {"tested_on": "Hela cells and p53 deleted cell line", "assay": "Cytokinesis block cell cycle progression assay in p53 repressed/deleted cells", "format": "cell-based", "settings": "exposed to UV, cytochalasin B, 36 hours; partial (25%) and 100% transduction", "experimental": "as §2\nTo test this hypothesis, the cell cycle arrest response was examined in Tax-expressing and control p53−/− cells. Tax-expressing and control Hela cell groups were subjected to the cytokinesis block cell cycle progression assay as described above. Each cell group was exposed to UV and incubated with cytochalasin B one hour later. The cells were examined after 36 hours for the presence of binucleated dividing cells. Hela cells transduced to express Tax at 25% efficiency. Tax-expressing Hela cells were identified by immunofluorescence using anti-Tax mouse monoclonal antibody and FITC-conjugated anti-mouse secondary antibody. The nuclei were stained with propidium iodide. Hela and Tax-expressing Hela formed binuclei indicating normal division. […] In experiments using 100% transduction of Tax, 1000 cell events were counted."}, "REF52 and p53d cells": {"tested_on": "REF52 and p53d cells", "assay": "Flow cytometry cell cycle analysis (G1 checkpoint) after UV", "format": "cell-based", "settings": "synchronized at G0, UV treatment, 20% serum; wild type or deleted p53 background", "experimental": "For cell cycle analysis, cells were collected by gentle scraping following a rapid EDTA rinse and concentrated by low speed centrifugation and washed in 1×PBS, and fixed with cold 70% ethanol. Cells were stained with a PI solution (PBS 1×, RNase A [10 μg/ml], and Propidium Iodide [50 μg/ml]) followed by cell sorting analysis. FACS data acquired were analyzed by CellQuest software.\nTo determine whether the failure in cell cycle arrest was due to a failed G1 checkpoint, cells were synchronized at G0 by serum starvation. The cells were then cultured in 20% serum to stimulate return to cell cycle following UV treatment. Cell cycle was determined by total DNA content as described above. […] This was true for either a wild type or deleted p53 background. Therefore, the failure in cell cycle arrest is due at least in part to a failed G1 arrest."}, "[6]": {"tested_on": "p53 mutant background (HeLa)", "assay": "Percent surviving cells after sublethal UV", "format": "cell-based", "settings": "24 hours after treatment, vs control cells", "experimental": "(§3) It was reasoned that if Tax-expressing cells display impaired damage response in a p53 independent manner then cells both deleted for p53 and expressing Tax would be more prone to apoptotic cell death in response to UV. To test this hypothesis, the apoptotic response of both Tax-expressing and control p53−/− cells was examined. Tax-expressing and control cells were exposed to sublethal doses of UV and examined for percent surviving cells 24 hours after treatment."}, "p53−/− cells [7]": {"tested_on": "p53−/− cells", "assay": "Percent surviving cells after sublethal UV", "format": "cell-based", "settings": "24 hours after treatment", "experimental": "as §3"}, "p53+/+ cells (REF52)": {"tested_on": "p53+/+ cells (REF52)", "assay": "Percent surviving cells after sublethal UV", "format": "cell-based, rat", "settings": "24 hours after treatment, vs control cells"}, "p53−/− cells [8]": {"tested_on": "p53−/− cells", "assay": "UV-induced apoptosis, Vybrant Apoptosis Assay", "format": "cell-based", "settings": "UV 20 and 50 J/m^2, 12 and 24 hours", "experimental": "as §1\nThe early apoptotic response of Tax-expressing p53−/− cells was also observed. In this series of experiments the cell groups were exposed to 0 J/m^2, 20 J/m^2 and 50 J/m^2 and apoptosis measured at 12 and 24 hours (FIG. 7). […] This level of UV-induced apoptosis is equivalent to that seen in cells defective in NER (FIG. 3)."}}}
{"substance": "Tax", "values": [{"measurement": "NER capacity", "setting": "REF52 cells [1]", "result": "significantly reduced"}, {"measurement": "apoptotic response to DNA damage", "setting": "REF52 cells [2]", "result": "normal apoptotic response"}, {"measurement": "binucleated cells", "setting": "REF52 cells [3]; exposed to UV, cytochalasin B, examined 36 hours later, 1000 cells per data point", "result": "~75", "unit": "%"}, {"measurement": "binucleated cell profile without UV", "setting": "REF52 cells [3]; unexposed to UV", "result": "same profile as in the absence of Tax"}, {"measurement": "UV-induced unscheduled DNA synthesis", "setting": "REF52 cells [4]", "result": "indistinguishable from control cells"}, {"measurement": "nuclear accumulation of P53", "setting": "p53", "result": "strong nuclear accumulation of P53"}, {"measurement": "steady-state protein levels of p53", "setting": "p53 and p21", "result": "stabilization of steady-state protein levels of p53"}, {"measurement": "percent of binucleated cells", "setting": "[5]", "result": "> 72", "unit": "%"}, {"measurement": "percentage of cells leaving G1", "setting": "REF52 and p53d cells", "result": "consistent and significant increase"}, {"measurement": "percent of surviving cells", "setting": "[6]", "result": "no decreased percent of surviving cells"}, {"measurement": "cell death in response to UV exposure", "setting": "p53−/− cells [7]", "result": "significant cell death"}, {"measurement": "percent of surviving cells", "setting": "p53+/+ cells (REF52)", "result": "no decreased percent of surviving cells"}, {"measurement": "apoptosis", "setting": "p53−/− cells [8]", "result": "Significant apoptosis"}]}
